The source of these data is patent publication US10941138B2, “Quinoline and isoquinoline derivatives for treating pain and pain related conditions” (ESTEVE PHARMACEUTICALS, S.A., priority 2016, dated 2021).

Where two headings read alike, the source gives them in different places.

The target of test [1] is human α2δ-1 subunit of Cav2.2 calcium channel (Homo sapiens (Human), UniProt P54289). The test can be described thus: Binding assay to human α2δ-1 subunit of Cav2.2 calcium channel ([3H]-Gabapentin). Particulars: read-out: Ki (nM) alpha2delta Hum. As to the method:
Binding Assay to Human α2δ-1 Subunit of Cav2.2 Calcium Channel.
Human α2δ-1 enriched membranes (2.5 μg) were incubated with 15 nM of radiolabeled [3H]-Gabapentin in assay buffer containing Hepes-KOH 10 mM, pH 7.4.
NSB (non specific binding) was measured by adding 10 μM pregabalin. The binding of the test compound was measured at five different concentrations. After 60 min incubation at 27° C., binding reaction was terminated by filtering through Multiscreen GF/C (Millipore) presoaked in 0.5% polyethyleneimine in Vacuum Manifold Station, followed by 3 washes with ice-cold filtration buffer containing 50 mM Tris-HCl, pH 7.4. Filter plates were dried at 60° C. for 1 h and 30 μl of scintillation cocktail were added to each well before radioactivity reading.
(§1) Readings were performed in a Trilux 1450 Microbeta radioactive counter (Perkin Elmer).

Test [2] has as its target human norepinephrine transporter (NET) (Homo sapiens (Human), UniProt P23975). Kind of test: Binding assay to human norepinephrine transporter (NET) ([3H]-Nisoxetin). Particulars: Table 2, dual compounds, human NET enriched membranes, read-out: Ki (nM) NET Hum. As to the method:
Binding Assay to Human Norepinephrine Transporter (NET).
Human norepinephrine transporter (NET) enriched membranes (5 μg) were incubated with 5 nM of radiolabeled [3H]-Nisoxetin in assay buffer containing 50 mM Tris-HCl, 120 mM NaCl, 5 mM KCl, pH 7.4.
NSB (non specific binding) was measured by adding desipramine 10 μM. The binding of the test compound was measured at five different concentrations. After 60 min incubation at 4° C., binding reaction was terminated by filtering through Multiscreen GF/C (Millipore) presoaked in 0.5% polyethyleneimine in Vacuum Manifold Station, followed by 3 washes with ice-cold filtration buffer containing 50 mM Tris-HCl, 0.9% NaCl, pH 7.4.
Filter plates were dried at 60° C. for 1 h and 30 μl of scintillation cocktail were added to each well before radioactivity reading.
as §1

Setting [3] is: Table 1, human α2δ-1 enriched membranes.
The mark [4] stands for this setting: Table 2, dual compounds, human α2δ-1 enriched membranes.

Chain of human α2δ-1 subunit of Cav2.2 calcium channel (P54289 25-1103): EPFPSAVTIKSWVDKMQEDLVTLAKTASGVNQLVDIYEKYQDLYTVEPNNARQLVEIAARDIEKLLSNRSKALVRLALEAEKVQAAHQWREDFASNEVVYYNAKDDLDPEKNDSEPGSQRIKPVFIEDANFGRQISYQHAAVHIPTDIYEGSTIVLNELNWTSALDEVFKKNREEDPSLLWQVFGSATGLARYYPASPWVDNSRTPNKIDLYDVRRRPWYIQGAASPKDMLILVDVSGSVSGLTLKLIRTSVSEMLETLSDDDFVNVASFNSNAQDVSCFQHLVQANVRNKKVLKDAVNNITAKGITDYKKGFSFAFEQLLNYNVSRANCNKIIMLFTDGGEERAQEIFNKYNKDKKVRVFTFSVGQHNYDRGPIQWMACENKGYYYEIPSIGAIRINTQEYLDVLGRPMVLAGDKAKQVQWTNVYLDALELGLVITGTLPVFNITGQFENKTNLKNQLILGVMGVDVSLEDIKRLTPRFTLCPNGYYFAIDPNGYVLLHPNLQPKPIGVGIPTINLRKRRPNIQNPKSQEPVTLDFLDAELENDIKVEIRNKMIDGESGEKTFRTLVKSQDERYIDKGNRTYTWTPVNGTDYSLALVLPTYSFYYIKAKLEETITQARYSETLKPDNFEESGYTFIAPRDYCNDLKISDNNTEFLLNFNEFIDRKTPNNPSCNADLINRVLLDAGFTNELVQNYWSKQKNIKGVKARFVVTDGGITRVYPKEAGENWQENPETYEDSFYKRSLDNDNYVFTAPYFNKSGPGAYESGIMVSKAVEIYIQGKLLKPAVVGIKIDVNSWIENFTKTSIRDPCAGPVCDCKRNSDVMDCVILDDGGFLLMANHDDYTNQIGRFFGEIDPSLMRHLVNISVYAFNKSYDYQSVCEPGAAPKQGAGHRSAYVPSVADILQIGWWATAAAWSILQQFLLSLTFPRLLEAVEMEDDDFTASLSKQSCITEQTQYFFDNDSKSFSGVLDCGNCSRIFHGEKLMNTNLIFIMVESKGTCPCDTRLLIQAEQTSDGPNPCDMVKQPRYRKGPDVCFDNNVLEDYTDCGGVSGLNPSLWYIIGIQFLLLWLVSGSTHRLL
Chain of human norepinephrine transporter (NET) (P23975 whole entry): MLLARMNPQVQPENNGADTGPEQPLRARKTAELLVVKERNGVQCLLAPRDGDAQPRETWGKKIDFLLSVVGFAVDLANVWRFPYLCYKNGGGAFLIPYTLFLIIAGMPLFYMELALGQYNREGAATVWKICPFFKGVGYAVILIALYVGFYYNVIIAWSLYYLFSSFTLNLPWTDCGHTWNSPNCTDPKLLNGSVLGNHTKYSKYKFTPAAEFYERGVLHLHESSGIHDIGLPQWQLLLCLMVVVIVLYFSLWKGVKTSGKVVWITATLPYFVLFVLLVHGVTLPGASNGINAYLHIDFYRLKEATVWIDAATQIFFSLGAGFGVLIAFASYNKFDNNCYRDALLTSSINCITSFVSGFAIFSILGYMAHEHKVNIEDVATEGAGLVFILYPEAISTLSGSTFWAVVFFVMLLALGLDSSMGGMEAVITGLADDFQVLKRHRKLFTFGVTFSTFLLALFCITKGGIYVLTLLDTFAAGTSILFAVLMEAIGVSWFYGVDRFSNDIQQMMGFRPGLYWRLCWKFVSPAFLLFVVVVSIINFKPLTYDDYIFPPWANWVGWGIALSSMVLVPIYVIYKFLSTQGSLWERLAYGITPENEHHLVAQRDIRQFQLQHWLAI

On to `CNCC[C@H](Oc1cccc2ccncc12)c1cccs1` (stereo in doubt) [Example 12, 3-(isoquinolin-8-yloxy)-N-methyl-3-(thiophen-2-yl)propan-1-amine], for which the Ki in test [1] (setting [3]), in test [1] (setting [4]) and in test [2] was 100 to 500 nM each time.
Take `CNCCC(Oc1cccc2cccnc12)c1cccs1` (centres unmarked) [Example 1, N-Methyl-3-(quinolin-8-yloxy)-3-(thiophen-2-yl)propan-1-amine]: the Ki in test [1] (setting [3]) is not below 3000 nM; in test [1] (setting [4]), not below 3000 nM; in test [2], less than 100 nM.
As for `CNCCC(Oc1cccc2ncccc12)c1cccs1` (centres unmarked) [Example 2, N-methyl-3-(quinolin-5-yloxy)-3-(thiophen-2-yl)propan-1-amine], the Ki in test [1] (setting [3]), in test [1] (setting [4]) and in test [2] was 100 to 500 nM in each case.
For `CNCCC(Oc1cccc2cnccc12)c1cccs1` (centres unmarked) [Example 3, 3-(isoquinolin-5-yloxy)-N-methyl-3-(thiophen-2-yl)propan-1-amine], the Ki in test [1] (setting [3]) was 100 to 500 nM; in test [1] (setting [4]), 100 to 500 nM; in test [2], less than 100 nM.
Consider `CNCC[C@H](Oc1cccc2ncccc12)c1cccs1` [Example 9, (S)-N-methyl-3-(quinolin-5-yloxy)-3-(thiophen-2-yl)propan-1-amine], for which the Ki in test [1] (setting [3]) is less than 100 nM; in test [1] (setting [4]) it was less than 100 nM; in test [2] it was 500 to 1000 nM.
For the compound `CNCC[C@H](Oc1cccc2ccncc12)c1cccs1` [Example 10, (S)-3-(isoquinolin-8-yloxy)-N-methyl-3-(thiophen-2-yl)propan-1-amine], the Ki in test [1] (setting [3]) was not below 3000 nM; in test [1] (setting [4]), not below 3000 nM; in test [2], 500 to 1000 nM.
Take `CNCC[C@H](Oc1cccc2cnccc12)c1cccs1` [Example 11, (S)-3-(isoquinolin-5-yloxy)-N-methyl-3-(thiophen-2-yl)propan-1-amine]: the Ki in test [1] (setting [3]) is not below 3000 nM; in test [1] (setting [4]), not below 3000 nM; in test [2], less than 100 nM.
Take `CNCC[C@@H](Oc1cccc2ccncc12)c1cccs1` [Example 13, (R)-3-(isoquinolin-8-yloxy)-N-methyl-3-(thiophen-2-yl)propan-1-amine]: the Ki in test [1] (setting [3]), in test [1] (setting [4]) and in test [2] was 100 to 500 nM throughout.
`CNCC[C@@H](Oc1cccc2cnccc12)c1cccs1` [Example 14, (R)-3-(isoquinolin-5-yloxy)-N-methyl-3-(thiophen-2-yl)propan-1-amine]: the Ki in test [1] (setting [3]), in test [1] (setting [4]) and in test [2] was 100 to 500 nM each time.
As to `CNCC[C@@H](Oc1cccc2ncccc12)c1cccs1` [Example 15, (R)-N-methyl-3-(quinolin-5-yloxy)-3-(thiophen-2-yl)propan-1-amine], the Ki in test [1] (setting [3]), in test [1] (setting [4]) and in test [2] was 100 to 500 nM throughout.
On to `CNCCC(Oc1cccc2cnccc12)c1cccnc1` (centres unmarked) [Example 17, 3-(isoquinolin-5-yloxy)-N-methyl-3-(pyridin-3-yl)propan-1-amine], for which the Ki is not below 3000 nM in test [1] (setting [3]), not below 3000 nM in test [1] (setting [4]) and 100 to 500 nM in test [2].
For `CNCCC(Oc1cccc2cnccc12)C1CCOCC1` (centres unmarked) [Example 18, 3-(isoquinolin-5-yloxy)-N-methyl-3-(tetrahydro-2H-pyran-4-yl)propan-1-amine], the figures for the Ki in test [1] (setting [3]), in test [1] (setting [4]) and in test [2] were not below 3000 nM, not below 3000 nM and 100 to 500 nM, respectively.
As for `CNCCC(Oc1cccc2cnccc12)c1ccncc1` (centres unmarked) [Example 25, 3-(isoquinolin-5-yloxy)-N-methyl-3-(pyridin-4-yl)propan-1-amine], the Ki was not below 3000 nM in test [1] (setting [3]), not below 3000 nM in test [1] (setting [4]) and 100 to 500 nM in test [2].
For the compound `CNCCC(Oc1cccc2ccncc12)c1cc(C(F)(F)F)ccn1` (centres unmarked) [Example 30, 3-(isoquinolin-8-yloxy)-N-methyl-3-(4-(trifluoromethyl)pyridin-2-yl)propan-1-amine], the Ki in test [1] (setting [3]) was not below 3000 nM; in test [1] (setting [4]), not below 3000 nM; in test [2], 500 to 1000 nM.
With `CNCCC(Oc1cccc2ncccc12)c1ccc(Cl)s1` (centres unmarked) [Example 41, 3-(5-chlorothiophen-2-yl)-N-methyl-3-(quinolin-5-yloxy)propan-1-amine], the Ki in test [1] (setting [3]), in test [1] (setting [4]) and in test [2] was 100 to 500 nM each time.
As for `CNCCC(Oc1cccc2ncccc12)c1ccc(F)s1` (centres unmarked) [Example 42, 3-(5-fluorothiophen-2-yl)-N-methyl-3-(quinolin-5-yloxy)propan-1-amine], the Ki in test [1] (setting [3]) is less than 100 nM; in test [1] (setting [4]), less than 100 nM; in test [2] it was 100 to 500 nM.
Take `NCCC(Oc1cccc2cnccc12)c1cccs1` (centres unmarked) [Example 44, 3-(isoquinolin-5-yloxy)-3-(thiophen-2-yl)propan-1-amine]: the results for the Ki in test [1] (setting [3]), in test [1] (setting [4]) and in test [2] were not below 3000 nM, not below 3000 nM and 100 to 500 nM, respectively.
Turning to `CNCCC(Oc1cccc2cnccc12)c1ccc(F)s1` (centres unmarked) [Example 45, 3-(5-fluorothiophen-2-yl)-3-(isoquinolin-5-yloxy)-N-methylpropan-1-amine], the Ki in test [1] (setting [3]) is less than 100 nM; in test [1] (setting [4]) it was less than 100 nM; in test [2] it was 100 to 500 nM.
Take `CNCCC(Oc1cccc2cnccc12)c1sccc1F` (centres unmarked) [Example 46, 3-(3-fluorothiophen-2-yl)-3-(isoquinolin-5-yloxy)-N-methylpropan-1-amine]: the Ki in test [1] (setting [3]) is 100 to 500 nM; in test [1] (setting [4]), 100 to 500 nM; in test [2], less than 100 nM.
In the case of `CNCCC(Oc1cccc2ccncc12)c1sccc1F` (centres unmarked) [Example 47, 3-(3-fluorothiophen-2-yl)-3-(isoquinolin-8-yloxy)-N-methylpropan-1-amine], the Ki in test [1] (setting [3]), in test [1] (setting [4]) and in test [2] was 100 to 500 nM each time.
Turning to `CNCCC(Oc1cccc2ncccc12)c1sccc1F` (centres unmarked) [Example 48, 3-(3-fluorothiophen-2-yl)-N-methyl-3-(quinolin-5-yloxy)propan-1-amine], the Ki in test [1] (setting [3]), in test [1] (setting [4]) and in test [2] was 100 to 500 nM throughout.
In the case of `CNCCC(Oc1cccc2ccncc12)c1ccc(F)s1` (centres unmarked) [Example 49, 3-(5-fluorothiophen-2-yl)-3-(isoquinolin-8-yloxy)-N-methylpropan-1-amine], the Ki in test [1] (setting [3]), in test [1] (setting [4]) and in test [2] was 100 to 500 nM each time.
Consider `CNCC[C@H](Oc1cccc2cnccc12)c1ccc(F)s1` [Example 50, (S)-3-(5-fluorothiophen-2-yl)-3-(isoquinolin-5-yloxy)-N-methylpropan-1-amine], for which the Ki in test [1] (setting [3]) is 500 to 3000 nM; in test [1] (setting [4]), 500 to 3000 nM; in test [2], less than 100 nM.
On to `CNCC[C@H](Oc1cccc2ncccc12)c1ccc(F)s1` [Example 51, (S)-3-(5-fluorothiophen-2-yl)-N-methyl-3-(quinolin-5-yloxy)propan-1-amine], for which the Ki in test [1] (setting [3]), in test [1] (setting [4]) and in test [2] was 100 to 500 nM each time.
As for `CCNCC[C@@H](Oc1cccc2ncccc12)c1cccs1` [Example 93, (R)-N-ethyl-3-(quinolin-5-yloxy)-3-(thiophen-2-yl)propan-1-amine], the Ki in test [1] (setting [3]) lay in the range of 100 to 500 nM.
As to `CNCC[C@H](Oc1cnc2ccccc2c1)c1cccs1` [Example 95, (S)-N-methyl-3-(quinolin-3-yloxy)-3-(thiophen-2-yl)propan-1-amine], the Ki in test [1] (setting [3]) was not below 3000 nM.
